These results are taken from PMC4931847, “Preclinical validation of a novel compound targeting p70S6 kinase in breast cancer” (Aging (Albany NY), 2016).

For one data set, the system named is advanced solid tumors. On the set-up: method as in PMID 24456794, PMID 24440085. The conditions noted are these: cited from earlier work.
The test system of data set [1] is breast cancer local relapse. On the set-up: method as in PMID 23899505, PMID 24661902, PMID 18316551. The conditions noted are these: mouse model of breast cancer ref 9,10,24; cited from earlier work.
The next data set concerns MDA-MB-231 cells. Briefly: Soft agar anchorage-independent growth assay. In kind it is cell-based, human. The following applies: MDA-MB-231, soft agar, 3% WF, 10 or 20μM, three weeks. An excerpt: Vinculin was used as loading control. (B) Same as in (A) but the analysis was focused on STAT3 and Src signaling pathways. Actin was used as loading control. […] Two weeks later plates were stained with crystal violet and colonies photographed (C) and counted (D). […] After three weeks, colonies were photographed (E) and counted (F). Values reported in (D) and (F) represent the mean (± S.D.) of two independent experiments performed in duplicate. * p<0.05; ** p<0.01; *** p<0.001.
Both number and size of the colonies were affected, signifying that, in this context, activity of p70S6K was necessary for both survival and proliferation of breast cancer cells (Fig. 2E and F).
The experiments were performed in six-well tissue culture plates, in triplicate. Fresh medium was added to the wells twice a week as a feeder layer. After three weeks, the number of colonies was counted at 4X magnification.

Turning to `Cc1ccc(S(=O)(=O)O)cc1.Cn1cc(-c2ccc(F)c(C(F)(F)F)c2)nc1C1CCN(c2ncnc3[nH]ncc23)CC1` [LY2584702 tosylate], the clinical benefit entry with advanced solid tumors (alone or in combination with erlotinib or everolimus, phase I trials ref 11,12) is given as “very limited clinical benefit”. Besides, the tolerability entry in the data set on advanced solid tumors (particularly when administered with erlotinib ref 11,12) was “low tolerability”.

`CCc1cncnc1N1CCN(Cc2nc3ccc(C(F)(F)F)cc3[nH]2)CC1` [PF-4708671]: in data set [1], the “breast cancer local relapse” value is given as “strongly impaired”. Also, the “ability to survive and grow in anchorage independence” value with MDA-MB-231 cells is on record as “significantly decreased”.
